Assay results reported in patent US9273058B2 (BRISTOL-MYERS SQUIBB COMPANY, priority 2013, dated 2016).

Molecular target: CK1δ (Homo sapiens, UniProt P48730)
Test: CK1δ kinase assay (Caliper LabChip electrophoretic separation of fluoresceinated peptide substrate and product)
Format: biochemical
Conditions: 200 pM CK1δ, 50 μM ATP, 1.5 μM peptide, 22 hours at room temperature; read-out: CK1δ IC50 range
Method: CK1ε and CK1δ Kinase Assays
The kinase assay was performed in V-bottom 384-well plates. […] The reaction was incubated at room temperature for 22 hours and terminated by adding 45 μl of 35 mM EDTA to each sample. The reaction mixture was analyzed on the Caliper LABCHIP®3000 (Caliper, Hopkinton, Mass.) by electrophoretic separation of the unphosphorylated substrate and phosphorylated product. […] Compounds were dissolved at 10 mM in dimethylsulfoxide (DMSO) and evaluated at eleven concentrations. IC50 values were derived by non-linear regression analysis.

Chain of CK1δ (P48730 whole entry): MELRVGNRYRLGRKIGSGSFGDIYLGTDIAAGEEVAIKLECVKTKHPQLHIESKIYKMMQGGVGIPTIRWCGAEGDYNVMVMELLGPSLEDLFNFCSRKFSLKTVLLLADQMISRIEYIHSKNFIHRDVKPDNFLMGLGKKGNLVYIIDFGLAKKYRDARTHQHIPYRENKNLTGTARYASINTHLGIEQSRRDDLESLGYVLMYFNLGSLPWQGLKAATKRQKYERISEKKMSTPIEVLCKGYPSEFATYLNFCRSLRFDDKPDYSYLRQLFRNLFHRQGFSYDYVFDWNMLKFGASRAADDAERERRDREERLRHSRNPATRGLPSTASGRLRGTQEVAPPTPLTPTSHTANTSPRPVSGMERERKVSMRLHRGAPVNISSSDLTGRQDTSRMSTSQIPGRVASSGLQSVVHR

Compound | IC50 [nM]
N#Cc1ccc(O[C@H]2C[C@H](NC(=O)N3CCn4nc(-c5ccc(Cl)c(Cl)c5)c(C(N)=O)c4C3)C2)cc1 [Compound 268, N^5-((1r,3r)-3-(4-Cyanophenoxy)cyclobutyl)-2-(3,4-dichlorophenyl)-6,7-dihydropyrazolo[1,5-a] pyrazine-3,5(4H)-dicarboxamide] | 0.01 to 10
NC(=O)c1c(-c2cccc(Cl)c2)nn2c1CN(C(=O)NC1CC(C(F)F)C1)CC2 (stereo not drawn) [Compound 256, 2-(3-Chlorophenyl)-N^5-(3-(difluoromethyl)cyclobutyl)-6,7-dihydropyrazolo[1,5-a]pyrazine-3,5(4H)-dicarboxamide] | 0.01 to 10
COC12CCC(NC(=O)N3CCn4nc(-c5ccc(F)c(Cl)c5)c(C(N)=O)c4C3)(CC1)C(=O)C2 [Compound A60, 2-(3-Chloro-4-fluorophenyl)-N^5-(4-methoxy-2-oxobicyclo[2.2.2]octan-1-yl)-6,7-dihydropyrazolo[1,5-a]pyrazine-3,5(4H)-dicarboxamide] | 0.01 to 10
CC(C)(C)NC(=O)N1Cc2c(C(N)=O)c(-c3cccc(Cl)c3)nn2C(CO)C1 (stereo not drawn) [Compound A2, N^5-(tert-Butyl)-2-(3-chlorophenyl)-7-(hydroxymethyl)-6,7-dihydropyrazolo[1,5-a] pyrazine-3,5(4H)-dicarboxamide] | 0.01 to 10
2-(3-Chloro-4-fluorophenyl)-N^5-(3,3-difluorocyclobutyl)-7-isopropyl-6,7-dihydropyrazolo[1,5-a]pyrazine-3,5(4H)-dicarboxamide [Compound A123] | 10 to 100
NC(=O)c1c(-c2ccc(F)c(Cl)c2)nn2c1CN(C(=O)N[C@@H]1C[C@@H]3[C@H](C1)C3(F)F)CC2 [Compound 197, 2-(3-Chloro-4-fluorophenyl)-N^5-((1R,3s,5S)-6,6-difluorobicyclo[3.1.0]hexan-3-yl)-6,7-dihydropyrazolo[1,5-a] pyrazine-3,5(4H)-dicarboxamide] | 0.01 to 10
NC(=O)c1c(-c2ccc(F)c(Cl)c2)nn2c1CN(C(=O)NC13CCC(C(F)F)(CC1)CC3)CC2 [Compound A57, 2-(3-Chloro-4-fluorophenyl)-N^5-(4-(difluoromethyl)bicyclo[2.2.2]octan-1-yl)-6,7-dihydropyrazolo[1,5-a]pyrazine-3,5(4H)-dicarboxamide] | 0.01 to 10
NC(=O)c1c(-c2ccc(Cl)c(Cl)c2)nn2c1CN(C(=O)NC1CC3(CC3)C1)CC2 [Compound 207, 2-(3,4-Dichlorophenyl)-N^5-(spiro[2.3]hexan-5-yl)-6,7-dihydropyrazolo [1,5-a]pyrazine-3,5(4H)-dicarboxamide] | 0.01 to 10
NC(=O)c1c(-c2ccc(F)c(Cl)c2)nn2c1CN(C(=O)NC1CC(C(F)F)C1)CC2 (single isomer, unassigned) [Compound 252, 2-(3-Chloro-4-fluorophenyl)-N^5-(3-(difluoromethyl)cyclobutyl)-6,7-dihydropyrazolo[1,5-a]pyrazine-3,5(4H)-dicarboxamide] | 0.01 to 10
CC(C)(C)NC(=O)N1Cc2c(C(N)=O)c(-c3ccc(F)c(Cl)c3)nn2C(CCO)C1 (single isomer, unassigned) [Compound A97, N^5-(tert-Butyl)-2-(3-chloro-4-fluorophenyl)-7-(2-hydroxyethyl)-6,7-dihydropyrazolo[1,5-a]pyrazine-3,5(4H)-dicarboxamide] | 0.01 to 10
CO[C@H]1C[C@H](NC(=O)N2CCn3nc(-c4ccc(F)c(Cl)c4)c(C(N)=O)c3C2)C1 [Compound 192, 2-(3-Chloro-4-fluorophenyl)-N^5-((1r,3r)-3-methoxycyclobutyl)-6,7-dihydropyrazolo[1,5-a] pyrazine-3,5(4H)-dicarboxamide] | 0.01 to 10
N#Cc1ccc([C@H]2C[C@@H](NC(=O)N3CCn4nc(-c5ccc(F)c(Cl)c5)c(C(N)=O)c4C3)C2)cc1 [Compound 282, 2-(3-Chloro-4-fluorophenyl)-N^5-((1s,3s)-3-(4-cyanophenyl)cyclobutyl)-6,7-dihydropyrazolo[1,5-a]pyrazine-3,5(4H)-dicarboxamide] | 0.01 to 10
NC(=O)c1c(-c2ccc(F)c(Cl)c2)nn2c1CN(C(=O)NC13C4C5C1C1C3C4C51F)CC2 (stereo not drawn) [Compound A71, N^5-(4-Fluorocuban-1-yl)-2-(3-chloro-4-fluorophenyl)-6,7-dihydropyrazolo[1,5-a]pyrazine-3,5(4H)-dicarboxamide] | 0.01 to 10
CC(C)(O)[C@H](F)CNC(=O)N1CCn2nc(-c3cccc(Cl)c3)c(C(N)=O)c2C1 [Compound 337, (R)-2-(3-Chlorophenyl)-N^5-(2-fluoro-3-hydroxy-3-methylbutyl)-6,7-dihydropyrazolo[1,5-a]pyrazine-3,5(4H)-dicarboxamide] | 0.01 to 10
N#CC1(NC(=O)N2CCn3nc(-c4cccc(Cl)c4)c(C(N)=O)c3C2)CCC1 [Compound A43, 2-(3-Chlorophenyl)-N^5-(1-cyanocyclobutyl)-6,7-dihydropyrazolo[1,5-a]pyrazine-3,5(4H)-dicarboxamide] | 0.01 to 10
CC1(NC(=O)N2CCn3nc(-c4cccc(Cl)c4)c(C(N)=O)c3C2)CCC1 [Compound A44, 2-(3-Chlorophenyl)-N^5-(1-methylcyclobutyl)-6,7-dihydropyrazolo[1,5-a]pyrazine-3,5(4H)-dicarboxamide] | 0.01 to 10
NC(=O)c1c(-c2ccc(F)c(Cl)c2)nn2c1CN(C(=O)NC1(COC(F)F)CCC1)CC2 [Compound 223, 2-(3-Chloro-4-fluorophenyl)-N^5-(1-((difluoromethoxy)methyl)cyclobutyl)-6,7-dihydropyrazolo[1,5-a]pyrazine-3,5(4H)-dicarboxamide] | 0.01 to 10
NC(=O)c1c(-c2cccc(Cl)c2)nn2c1CN(C(=O)NC(CF)(CF)CF)CC2 [Compound A41, 2-(3-Chlorophenyl)-N^5-(1,3-difluoro-2-(fluoromethyl)propan-2-yl)-6,7-dihydropyrazolo[1,5-a] pyrazine-3,5(4H)-dicarboxamide] | 0.01 to 10
CCC1(NC(=O)N2CCn3nc(-c4ccc(Cl)c(Cl)c4)c(C(N)=O)c3C2)CC(F)(F)C1 [Compound 301, 2-(3,4-Dichlorophenyl)-N^5-(1-ethyl-3,3-difluorocyclobutyl)-6,7-dihydropyrazolo[1,5-a]pyrazine-3,5(4H)-dicarboxamide] | 0.01 to 10
CC(F)(F)C(C)(C)NC(=O)N1CCn2nc(-c3ccc(Cl)c(Cl)c3)c(C(N)=O)c2C1 [Compound 201, 2-(3,4-Dichlorophenyl)-N^5-(3,3-difluoro-2-methylbutan-2-yl)-6,7-dihydropyrazolo[1,5-a] pyrazine-3,5(4H)-dicarboxamide] | 0.01 to 10
NC(=O)c1c(-c2ccc(F)c(Cl)c2)nn2c1CN(C(=O)NC13CCC(CC1)C3)CC2 [Compound A73, N^5-(Bicyclo[2.2.1]heptan-1-yl)-2-(3-chloro-4-fluorophenyl)-6,7-dihydropyrazolo[1,5-a]pyrazine-3,5(4H)-dicarboxamide] | 0.01 to 10
CC(F)(F)C(C)(C)NC(=O)N1CCn2nc(-c3cccc(Cl)c3)c(C(N)=O)c2C1 [Compound 174, 2-(3-Chlorophenyl)-N^5-(3,3-difluoro-2-methylbutan-2-yl)-6,7-dihydropyrazolo[1,5-a] pyrazine-3,5(4H)-dicarboxamide] | 0.01 to 10
CO[C@H]1C[C@@H](NC(=O)N2CCn3nc(-c4ccc(F)c(Cl)c4)c(C(N)=O)c3C2)C1 [Compound 191, 2-(3-Chloro-4-fluorophenyl)-N^5-((1s,3s)-3-methoxycyclobutyl)-6,7-dihydropyrazolo[1,5-a] pyrazine-3,5(4H)-dicarboxamide] | 0.01 to 10
CC(CF)(CF)NC(=O)N1CCn2nc(-c3ccc(Cl)c(Cl)c3)c(C(N)=O)c2C1 [Compound 210, 2-(3,4-Dichlorophenyl)-N^5-(1,3-difluoro-2-methylpropan-2-yl)-6,7-dihydropyrazolo [1,5-a]pyrazine-3,5(4H)-dicarboxamide] | 0.01 to 10
CC(C)(C)NC(=O)N1Cc2c(C(N)=O)c(-c3ccc(F)c(Cl)c3)nn2C(C(F)(F)F)C1 (single isomer, unassigned) [Compound A128, N^5-(tert-Butyl)-2-(3-chloro-4-fluorophenyl)-7-(trifluoromethyl)-6,7-dihydropyrazolo[1,5-a]pyrazine-3,5(4H)-dicarboxamide] | 0.01 to 10
NC(=O)c1c(-c2cccc(Cl)c2)nn2c1CN(C(=O)N[C@@H]1CC[C@H]1COC(F)F)CC2 [Compound 242, 2-(3-Chlorophenyl)-N^5-((1R,2R)-2-((difluoromethoxy)methyl)cyclobutyl)-6,7-dihydropyrazolo[1,5-a] pyrazine-3,5(4H)-dicarboxamide] | 0.01 to 10
CC(C)(NC(=O)N1CCn2nc(-c3ccc(Cl)c(Cl)c3)c(C(N)=O)c2C1)C1CC(F)(F)C1 [Compound 228, 2-(3,4-Dichlorophenyl)-N^5-(2-(3,3-difluorocyclobutyl)propan-2-yl)-6,7-dihydropyrazolo[1,5-a] pyrazine-3,5(4H)-dicarboxamide] | 0.01 to 10
COC12CCC(NC(=O)N3CCn4nc(-c5ccc(F)c(Cl)c5)c(C(N)=O)c4C3)(CC1)CC2 [Compound A59, 2-(3-Chloro-4-fluorophenyl)-N^5-(4-methoxybicyclo[2.2.2]octan-1-yl)-6,7-dihydropyrazolo[1,5-a]pyrazine-3,5(4H)-dicarboxamide] | 0.01 to 10
NC(=O)c1c(-c2ccc(F)c(Cl)c2)nn2c1CN(C(=O)NCC1CCC(F)(F)CC1)CC2 [Compound 194, 2-(3-Chloro-4-fluorophenyl)-N^5-((4,4-difluorocyclohexyl)methyl)-6,7-dihydropyrazolo[1,5-a] pyrazine-3,5(4H)-dicarboxamide] | 0.01 to 10
NC(=O)c1c(-c2cccc(Cl)c2)nn2c1CN(C(=O)NC13CCC(F)(CC1)CC3)CC2 [Compound A75, 2-(3-Chlorophenyl)-N^5-(4-fluorobicyclo[2.2.2]octan-1-yl)-6,7-dihydropyrazolo[1,5-a]pyrazine-3,5(4H)-dicarboxamide] | 0.01 to 10
